For the experiment, the system named is NL4-3 infected resting CD4+ T cells. The experiment is described as follows: Intracellular HIV Gag staining (flow cytometry) of resting CD4+ T cells directly infected with NL4-3, day 3 post-infection. To be noted: resting CD4+ T cells infected with NL4-3 by spinoculation, cultured in the presence of the compound, three days postinfection. In kind it is cell-based. Here is the method:
Quiescent CD4+ T cells in the G0/1a stage of the life cycle were enriched by depletion of lineage and activation markers (39, 40). Cells were infected with NL4-3 by spinoculation (32) and cultured in the absence of activating cytokines and in the presence of the protease inhibitor saquinavir (17, 39). dNs were added to infected cultures to overcome SAMHD1− mediated restriction that has been described in resting T cells (33, 41, 42). Three days postinfection cells were stained with LIVE/DEAD aqua and stained for surface markers with antibodies against CD3 (AF700), CD4 (PECy5.5), and CD25/CD69/HLA-DR (APC). Cells were then fixed, permeabilized and stained for HIV Gag. […] Consistent with our previous work, the cultured Gag+ cells lacked the activation markers CD25, CD69 and HLA-DR at day 3. […] The level of integrated HIV DNA was determined to be 0.32 copies per cell in the bulk culture (termed whole culture, WC). Gag+CD4− cells contained 1.2 HIV proviruses per cell, which represented an enrichment of integrated HIV DNA in Gag+CD4− cells compared to Gag− cell populations (Gag−CD4− cells contained 0.013 copies, Gag−CD4int cells contained 0.11 copies, and Gag− CD4+ cells contained 0.24 copies of integrated HIV DNA per cell).

`Cc1nnc(C(=O)NC(C)(C)c2nc(C(=O)NCc3ccc(F)cc3)c(O)c(=O)n2C)o1` [raltegravir]: the “Gag staining of infected cells” value is “very low Gag staining”.

The values are drawn from US10620112B2, “Measuring HIV reservoirs with optical scanning” (SRI INTERNATIONAL, priority 2015, dated 2020).
